Laboratory results taken from ChEMBL document CHEMBL1153012, “Synthesis and antibacterial activity of novel 5-(4-methyl-1H-1,2,3-triazole) methyl oxazolidinones” (2009).
In brackets after ≈: the same amount, converted by molar mass.

Experiments:
Format in all cases: functional
[1] = system: Staphylococcus aureus; assay: Antibacterial activity against Staphylococcus aureus ATCC 25923 by agar dilution method
[2] = system: Staphylococcus aureus; assay: Antibacterial activity against Staphylococcus aureus ATCC 25923 by agar dilution method in presence of human plasma; conditions: ATCC 25923, Plasma
[3] = system: Staphylococcus aureus; assay: Antibacterial activity against methicillin-susceptible Staphylococcus aureus by agar dilution method
[4] = system: Staphylococcus aureus; assay: Antibacterial activity against methicillin-resistant Staphylococcus aureus by agar dilution method
[5] = system: Staphylococcus; assay: Antibacterial activity against methicillin-sensitive coagulase-negative Staphylococcus by agar dilution method
[6] = system: Staphylococcus; assay: Antibacterial activity against methicillin resistant coagulase-negative Staphylococcus by agar dilution method
[7] = system: Streptococcus pneumoniae; assay: Antibacterial activity against Streptococcus pneumoniae by agar dilution method
[8] = system: Enterococcus; assay: Antibacterial activity against vancomycin-sensitive Enterococcus by agar dilution method
[9] = system: Enterococcus; assay: Antibacterial activity against vancomycin-resistant Enterococcus by agar dilution method
[10] = system: Haemophilus influenzae; assay: Antibacterial activity against Haemophilus influenzae ATCC 49247 by agar dilution method
[11] = system: Haemophilus influenzae; assay: Antibacterial activity against Haemophilus influenzae isolate 280 by agar dilution method
[12] = system: Haemophilus influenzae; assay: Antibacterial activity against Haemophilus influenzae isolate 282 by agar dilution method
[13] = system: Haemophilus influenzae; assay: Antibacterial activity against Haemophilus influenzae isolate 283 by agar dilution method
[14] = system: Haemophilus influenzae; assay: Antibacterial activity against Haemophilus influenzae isolate 285 by agar dilution method
[15] = system: Moraxella catarrhalis; assay: Antibacterial activity against Moraxella catarrhalis by agar dilution method
[16] = system: Escherichia coli; assay: Antibacterial activity against Escherichia coli ATCC 25922 by agar dilution method

Row | SMILES | MIC [1] [µg/mL] | MIC [2] [µg/mL] | MIC [3] [µg/mL] | MIC [4] [µg/mL] | MIC [5] [µg/mL] | MIC [6] [µg/mL] | MIC [7] [µg/mL] | MIC [8] [µg/mL] | MIC [9] [µg/mL] | MIC [10] [µg/mL] | MIC [11] [µg/mL] | MIC [12] [µg/mL] | MIC [13] [µg/mL] | MIC [14] [µg/mL] | MIC [15] [µg/mL] | MIC [16] [µg/mL]
1 | O=C1O[C@@H](Cn2ccnn2)CN1c1ccc(N2CCOCC2)c(F)c1 | 1 (≈ 2.88 µM) | 1 | 0.5 (≈ 1.44 µM) | 0.5 (≈ 1.44 µM) | 0.5 (≈ 1.44 µM) | 0.5 (≈ 1.44 µM) | 0.5 (≈ 1.44 µM) | 0.5 (≈ 1.44 µM) | 1 (≈ 2.88 µM) | 32 (≈ 92.1 µM) | 32 (≈ 92.1 µM) | 32 (≈ 92.1 µM) | 32 (≈ 92.1 µM) | 32 (≈ 92.1 µM) | > 16 | > 64
2 | CC(=O)N1CCN(c2ccc(N3C[C@H](Cn4cc(C)nn4)OC3=O)cc2F)CC1 | 2 (≈ 4.97 µM) | 8 | 1 (≈ 2.48 µM) | 1 (≈ 2.48 µM) | 1 (≈ 2.48 µM) | 1 (≈ 2.48 µM) | 1 (≈ 2.48 µM) | 1 (≈ 2.48 µM) | 1 (≈ 2.48 µM) | 64 (≈ 159 µM) | 64 (≈ 159 µM) | 64 (≈ 159 µM) | 64 (≈ 159 µM) | 64 (≈ 159 µM) | 8 (≈ 19.9 µM) | > 64
3 | CCC(=O)N1CCN(c2ccc(N3C[C@H](Cn4cc(C)nn4)OC3=O)cc2F)CC1 | 2 (≈ 4.8 µM) | 8 | 1 (≈ 2.4 µM) | 1 (≈ 2.4 µM) | 1 (≈ 2.4 µM) | 1 (≈ 2.4 µM) | 1 (≈ 2.4 µM) | 1 (≈ 2.4 µM) | 1 (≈ 2.4 µM) | 32 (≈ 76.8 µM) | 32 (≈ 76.8 µM) | 32 (≈ 76.8 µM) | 32 (≈ 76.8 µM) | 32 (≈ 76.8 µM) | 16 (≈ 38.4 µM) | > 64
4 | Cc1cn(C[C@H]2CN(c3ccc(N4CCN(C(=O)OC(C)(C)C)CC4)c(F)c3)C(=O)O2)nn1 | – | 64 | 2 (≈ 4.34 µM) | – | – | – | 8 (≈ 17.4 µM) | – | – | > 64 | > 64 | > 64 | > 64 | > 64 | 64 (≈ 139 µM) | > 64
5 | Cc1cn(C[C@H]2CN(c3ccc(N4CCN(C(=O)C(Cl)(Cl)Cl)CC4)c(F)c3)C(=O)O2)nn1 | 1 (≈ 1.98 µM) | 16 | 1 (≈ 1.98 µM) | 1 (≈ 1.98 µM) | 1 (≈ 1.98 µM) | 1 (≈ 1.98 µM) | 4 (≈ 7.91 µM) | 1 (≈ 1.98 µM) | 1 (≈ 1.98 µM) | > 64 | > 64 | > 64 | > 64 | > 64 | 32 (≈ 63.3 µM) | > 64
6 | CCOC(=O)N1CCN(c2ccc(N3C[C@H](Cn4cc(C)nn4)OC3=O)cc2F)CC1 | 1 (≈ 2.31 µM) | 32 | 1 (≈ 2.31 µM) | 1 (≈ 2.31 µM) | 1 (≈ 2.31 µM) | 1 (≈ 2.31 µM) | 4 (≈ 9.25 µM) | 1 (≈ 2.31 µM) | 1 (≈ 2.31 µM) | 64 (≈ 148 µM) | 64 (≈ 148 µM) | 64 (≈ 148 µM) | 64 (≈ 148 µM) | 64 (≈ 148 µM) | 16 (≈ 37 µM) | > 64
7 | CCSC(=O)N1CCN(c2ccc(N3C[C@H](Cn4cc(C)nn4)OC3=O)cc2F)CC1 | 2 (≈ 4.46 µM) | 64 | 1 (≈ 2.23 µM) | 1 (≈ 2.23 µM) | 1 (≈ 2.23 µM) | 1 (≈ 2.23 µM) | 2 (≈ 4.46 µM) | 1 (≈ 2.23 µM) | 1 (≈ 2.23 µM) | > 64 | > 64 | > 64 | > 64 | > 64 | 16 (≈ 35.7 µM) | > 64
8 | Cc1cn(C[C@H]2CN(c3ccc(N4CCN(C(=O)C(C)C)CC4)c(F)c3)C(=O)O2)nn1 | 1 (≈ 2.32 µM) | 16 | 1 (≈ 2.32 µM) | 0.5 (≈ 1.16 µM) | 0.5 (≈ 1.16 µM) | 0.5 (≈ 1.16 µM) | 2 (≈ 4.65 µM) | 1 (≈ 2.32 µM) | 0.5 (≈ 1.16 µM) | > 64 | > 64 | > 64 | > 64 | > 64 | 16 (≈ 37.2 µM) | > 64
9 | Cc1cn(C[C@H]2CN(c3ccc(N4CCN(C=O)CC4)c(F)c3)C(=O)O2)nn1 | 2 (≈ 5.15 µM) | 8 | 1 (≈ 2.57 µM) | 1 (≈ 2.57 µM) | 1 (≈ 2.57 µM) | 1 (≈ 2.57 µM) | 1 (≈ 2.57 µM) | 1 (≈ 2.57 µM) | 1 (≈ 2.57 µM) | 64 (≈ 165 µM) | 64 (≈ 165 µM) | 64 (≈ 165 µM) | 64 (≈ 165 µM) | 64 (≈ 165 µM) | 8 (≈ 20.6 µM) | > 64
10 | CC(=O)NC[C@H]1CN(c2ccc(N3CCOCC3)c(F)c2)C(=O)O1 [LINEZOLID] | – | – | 0.5 (≈ 1.48 µM) | 0.5 (≈ 1.48 µM) | 0.5 (≈ 1.48 µM) | 0.5 (≈ 1.48 µM) | – | 0.5 (≈ 1.48 µM) | 0.5 (≈ 1.48 µM) | 8 (≈ 23.7 µM) | 8 (≈ 23.7 µM) | 16 (≈ 47.4 µM) | 16 (≈ 47.4 µM) | 8 (≈ 23.7 µM) | 8 (≈ 23.7 µM) | > 64
11 | CN[C@H](CC(C)C)C(=O)N[C@H]1C(=O)N[C@@H](CC(N)=O)C(=O)N[C@H]2C(=O)N[C@H]3C(=O)N[C@H](C(=O)N[C@H](C(=O)O)c4cc(O)cc(O)c4-c4cc3ccc4O)[C@H](O)c3ccc(c(Cl)c3)Oc3cc2cc(c3O[C@@H]2O[C@H](CO)[C@@H](O)[C@H](O)[C@H]2O[C@H]2C[C@](C)(N)[C@H](O)[C@H](C)O2)Oc2ccc(cc2Cl)[C@H]1O [VANCOMYCIN] | – | – | – | – | 1 (≈ 0.69 µM) | 1 (≈ 0.69 µM) | 0.5 (≈ 0.345 µM) | 0.25 (≈ 0.173 µM) | > 64 | > 16 | > 16 | > 16 | > 16 | > 16 | > 16 | > 64
